Broadly, the CC50 is the concentration that lowers cell viability or growth by half. As a reminder, the MIC is the lowest concentration found to suppress growth.

The test system of data set [1] is Acinetobacter baumannii ATCC 19606. Put plainly: CO-ADD bacterial broth microdilution MIC assay. The following applies: CAMHB, 37 °C, 18 h, ≥ 80% inhibition; for MIC: Acinetobacter baumannii, ATCC19606, read-out: MIC Ab (Acinetobacter baumannii ATCC 19606). Type of data set: cell-based.
Data set [2] has as its system Escherichia coli ATCC 25922. As to the kind of experiment: CO-ADD bacterial broth microdilution MIC assay. The format is cell-based. The note with it: CAMHB, 37 °C, 18 h, ≥ 80% inhibition; for MIC: Escherichia coli, ATCC25922, read-out: MIC Ec (Escherichia coli ATCC 25922).
A further data set deals with HEK293 cells. As to the kind of experiment: Cytotoxicity assay (resazurin). The format is cell-based, human. The note with it: 20 h incubation, 0.8–100 μM; read-out: Tox CC50 (cytotoxicity against HEK293 cells). The procedure: (§1) Cytotoxicity assay: HEK293 ATCC CRL‐1573 human embryonic kidney cells suspended in DMEM media (Gibco; 11330332) supplemented with 10 % FBS (GE; SH30084.03) and 100 U mL^−1 each penicillin/streptomycin (Invitrogen; 15070063) were counted manually in a Neubauer haemocytometer and seeded into 384‐well, black wall, clear bottom tissue culture plates (Corning; Cat. No. 3712) at 5000 cells per well in a volume of 20 μL. Manually, 20 μL of each compound dilution was plated in duplicate on the cells, for a final concentration range of 0.8–100 μM. The cells were incubated together with the compounds for 20 h at 37 °C, 5 % CO2.
(§2) Cytotoxicity (or cell viability) was measured by fluorescence, ex: 560/10 nm, em: 590/10 nm (F560/590), after addition of 5 μL of 25 μg mL^−1 resazurin ([…]; Sigma R7017) and after further incubation for 3 h at 37 °C in 5 % CO2, using media only as negative control and cells without inhibitors as positive control. CC50 (concentration at 50 % cytotoxicity) were calculated by curve fitting the inhibition values vs. log(concentration) of four replicates using a sigmoidal dose‐response function, with variable fitting values for bottom, top and slope using Prism 8. Tamoxifen (Sigma T5648) was used as internal control on each plate.
A general note: Alamar Blue is a resazurin reagent that responds to reducing activity.

For data set [3], the system named is C. deuterogattii ATCC 32609. As to the kind of experiment: Antifungal MIC assay (broth microdilution in YNB). The format is cell-based, Cryptococcus deuterogattii. The text has this:
(§3) Yeast strains: Candida albicans (ATCC 90028, NCCLS 11), Cryptococcus neoformans (ATCC 208821, H99 type strain), Candida tropicalis (ATCC 750, type strain), Candida glabrata (ATCC 90030, NCCLS 84) and Cryptococcus deuterogattii (ATCC 32609, type strain) were obtained from the American Type Culture Collection (ATCC). Cryptococcus deuterogattii (CBS 7750), Candida auris (CBS 10913) and Candida auris (CBS 12373) were obtained from the CBS‐KNAW culture collection. The strains were maintained on glycerol/YPD (yeast extract‐peptone dextrose) broth (20:80 v/v) at −80 °C.
(§4) Antifungal minimum inhibitory concentration (MIC) assay: The cobalt complexes and antifungal control compounds were serially diluted in 50 μL of Yeast Nitrogen Broth (YNB; BD, Cat No. 233520 supplemented with 2 % glucose and 10 mM ammonium sulfate) two‐fold across the wells of non‐binding surface (NBS) 96‐well plates (Corning; Cat. No. 3641). Plates were set up in quadruplicate for each strain tested, and two biological replicates were conducted on separate assay days.
(§5) Yeast strains were cultured from glycerol onto YPD (Becton Dickinson 242720) agar at 30 °C for 72 h. For each strain, a minimum of five single colonies were taken from the agar plate and dissolved in sterile water and adjusted to form a yeast suspension of 1×10^6 to 5×10^6 CFU mL^−1 (as determined by OD530). The suspension was subsequently diluted into YNB media, and added to each well of the compound containing plates, giving a final cell density of 2.5×10^3 CFU mL^−1 and a total volume of 100 μL. Plates were covered and incubated at 35 °C for 36 h without shaking.
(§6) Growth inhibition of all strains was determined visually where the MIC was recorded as the lowest compound concentration with no visible growth. Fluconazole (Sigma F8929), ketoconazole (Sigma K1003) and micafungin (Sigma SML2288) were used as internal positive inhibitor controls for every strain tested.

Data set [4] deals with C. deuterogattii CBS 7750. Put plainly: Antifungal MIC assay (broth microdilution in YNB). Type of data set: cell-based, Cryptococcus deuterogattii.
Text: as §3, §4, §5, §6
(In general: Dilution methods test growth across graded concentrations, often in twofold steps.)

The next data set in a line: Cyclic voltammetry. The format is physicochemical. The note with it: DMF with 0.1 M TBAP (this work). The procedure:
Cyclic voltammetry: Electrochemical measurements were carried out in the same manner as reported previously. ^[25b] Experiments were conducted using a Pine WaveNow potentiostat with a three‐electrode setup consisting of a glassy carbon working electrode, a platinum counter electrode, and an Ag wire quasi‐reference electrode. Complexes were dissolved in anhydrous DMF with 0.10 M [Bu4N][PF6] (TBAP) as the supporting electrolyte. Potentials were referenced using an internal standard of the ferrocene/ferricenium couple at 0.45 V vs. the saturated calomel electrode (SCE). ^[33] The sample cell was deoxygenated by bubbling nitrogen gas through the solution prior to analysis and maintained under a blanket of nitrogen during the experiment.

In the next data set the test system is CO-ADD bacterial panel. Put plainly: CO-ADD bacterial panel, overall antibacterial activity. The format is cell-based. The note with it: CO‐ADD screening, Table S2. The procedure:
CO-ADD High Throughput Screening
Bacterial broth microdilution minimum inhibitory concentration (MIC) assay Bacterial strains were cultured in Cation-adjusted Mueller Hinton broth (CAMHB; Bacto Laboratories 212322) at 37 °C overnight. A sample of each culture was then diluted 40-fold in fresh CAMHB and incubated at 37 °C for 1.5-3 h. The resultant mid-log phase cultures were diluted with CAMHB (CFU/mL measured by OD600), then added to each well of the compound-containing plates (384-well non-binding surface (NBS) plates; Corning CLS3640), giving a cell density of 5 × 10^5 CFU/mL and a total volume of 50 µL. Plates were covered and incubated at 37 °C for 18 h without shaking. Inhibition of bacterial growth was determined measuring absorbance at 600 nm (OD600), using media only as negative control and bacteria without inhibitors as positive control. MIC values were determined as the lowest concentration at which the growth was inhibited at ≥ 80%. Colistin sulfate (Sigma C4461) and vancomycin HCl (Sigma 861987) were used as positive inhibitor controls on each plate for Gram-negative and Gram-positive bacteria, respectively.
Figure S1. 1H NMR (400 MHz) of [Co(ATS)(DMAP)2]NO3 (3) in DMSO-d6.
(1 picture or pasted object on this page, not shown here)

A short description of data set [5]: Cytotoxicity assay (resazurin). The format is cell-based, human. The note with it: human, HEK293 cells (ATCC CRL-1573); 20 h incubation, 0.8–100 μM; read-out: Tox CC50 (cytotoxicity against HEK293 cells). The procedure:
as §1, §2

The mark [6] stands for this setting: range of MICs, n=8, 35 °C, 36 h, visual, read-out: MIC C. deuterogattii ATCC 32609.
[7] abbreviates: range of MICs, n=8, 35 °C, 36 h, visual, read-out: MIC C. deuterogattii CBS 7750.
Setting [8] is: Cryptococcus deuterogattii, ATCC32609, Table S1, read-out: MIC Cryptococcus deuterogattii ATCC 32609.
[9] abbreviates: Cryptococcus deuterogattii, ATCC32609, range of MICs, n=8, 35 °C, 36 h, visual, read-out: MIC C. deuterogattii ATCC 32609.
Where [10] appears, read: Cryptococcus deuterogattii, CBS7750, Table S1, read-out: MIC Cryptococcus deuterogattii CBS 7750.
[11] abbreviates: Cryptococcus deuterogattii, CBS7750, range of MICs, n=8, 35 °C, 36 h, visual, read-out: MIC C. deuterogattii CBS 7750.

Read-outs that look alike come from different tables or passages of the source.

`O=[N+]([O-])[O-].O=[N+]([O-])[O-].[Co+2]` [Co, Co(NO3)2, reference compound]: the “MIC Ab (Acinetobacter baumannii ATCC 19606)” value (“MIC Ab” below) in data set [1] is more than 32 mg/L. Moreover, the “MIC Ec (Escherichia coli ATCC 25922)” value in data set [2] is more than 32 mg/L. Also, the CC50 with HEK293 cells was more than 100 µM. For the same compound, the “MIC Cryptococcus deuterogattii ATCC 32609” value in data set [3] (Table S1) is more than 29.1 mg/L. In addition, the minimal inhibitory concentration (MIC) in data set [3] (setting [6]) and in data set [4] (setting [7]) was more than 100 µM throughout. Also, the “MIC Cryptococcus deuterogattii CBS 7750” value in data set [4] (Table S1) was more than 29.1 mg/L.
Take `CC1=[N+]2N=C(N)[S][Co-3]23([n+]2ccc(N(C)C)cc2)([n+]2ccc(N(C)C)cc2)[S]C(N)=N[N+]3=C1C.O=[N+]([O-])[O-]` [Compound 3, [Co(ATS)(DMAP)2]NO3]: in the data set “Cyclic voltammetry”, the “First reduction E pc” value is listed as −0.69 V vs. SCE and the “Second reduction E 1/2” value is −1.17 V vs. SCE. Further, the “MIC Ab” value in data set [1] is more than 32 mg/L. Besides, the “MIC Ec (Escherichia coli ATCC 25922)” value in data set [2] was more than 32 mg/L. The CC50 in the data set with HEK293 cells was more than 100 µM. Further, the “MIC Cryptococcus deuterogattii ATCC 32609” value in data set [3] (Table S1) lay within 0.93 to 1.86 mg/L. In data set [3] (range of MICs, n=8, 35 °C, 36 h, visual), the “MIC C. deuterogattii ATCC 32609” value was in the range of 1.56 to 3.12 µM. In data set [4] (Table S1), the “MIC Cryptococcus deuterogattii CBS 7750” value turned out to be 0.93 mg/L. The MIC in data set [4] (setting [7]) was found to be 1.56 µM.
Regarding `O=[N+]([O-])[O-].[NH3+][Co-3]123([NH3+])[O]c4c(F)cccc4C=[N+]1c1ccccc1[N+]2=Cc1cccc(F)c1[O]3` [Compound 7, [Co(3F‐salophen)(NH3)2]NO3], the “First reduction E pc” value in the data set “Cyclic voltammetry” was −0.75 V vs. SCE. In “Cyclic voltammetry”, the “Second reduction E 1/2” value is listed as −1.08 V vs. SCE. Further, the “MIC Ab” value in data set [1] is more than 32 mg/L. Moreover, the “MIC Ec (Escherichia coli ATCC 25922)” value in data set [2] was more than 32 mg/L. The CC50 in the data set on HEK293 cells is more than 100 µM. Besides, the Antibacterial activity result with CO-ADD bacterial panel is given as “neither antibacterial nor antifungal activity”. Besides, the “MIC Cryptococcus deuterogattii ATCC 32609” value in data set [3] (Table S1) worked out at 47.8 mg/L. The MIC in data set [3] (setting [6]) and in data set [4] (setting [7]) was 100 µM in each case. Besides, in data set [4] (Table S1), the “MIC Cryptococcus deuterogattii CBS 7750” value was 47.8 mg/L.
On to `CC(=N\NC(N)=S)/C(C)=N/NC(N)=S` [Compound L1], for which the MIC was more than 32 mg/L in data set [1]; more than 32 mg/L in data set [2]; more than 23.2 mg/L in data set [3] (setting [8]); more than 100 µM in data set [3] (setting [9]); more than 23.2 mg/L in data set [4] (setting [10]); more than 100 µM in data set [4] (setting [11]). Also, in data set [5], the CC50 at 20 h was more than 100 µM.
Turning to `CC(/C=C(\O)C(F)(F)F)=N\CC/N=C(C)/C=C(\O)C(F)(F)F` [Compound L2], the minimum inhibitory concentration (MIC) is more than 32 mg/L in data set [1]; more than 32 mg/L in data set [2]; more than 33.2 mg/L in data set [3] (setting [8]); more than 100 µM in data set [3] (setting [9]); more than 33.2 mg/L in data set [4] (setting [10]); more than 100 µM in data set [4] (setting [11]). Moreover, the CC50 at 20 h in data set [5] was more than 100 µM.
With `Oc1c(F)cccc1/C=N/CC/N=C/c1cccc(F)c1O` [Compound L3], the MIC in data set [1] was more than 32 mg/L; in data set [2], more than 32 mg/L; in data set [3] (setting [8]), more than 30.4 mg/L; in data set [3] (setting [9]), 100 µM; in data set [4] (setting [10]) it was more than 30.4 mg/L; in data set [4] (setting [11]), more than 100 µM. Moreover, the CC50 at 20 h in data set [5] is more than 100 µM.
Consider “[Co(3F‐salophen)(3F‐BnNH2)2]NO3 [Compound 6]”, for which, in the data set “Cyclic voltammetry”, the “First reduction E pc” value was −0.59 V vs. SCE. Also, the “Second reduction E 1/2” value in the data set “Cyclic voltammetry” is −1.06 V vs. SCE. Also, the “MIC Ab” value in data set [1] was more than 32 mg/L. In data set [2], the “MIC Ec (Escherichia coli ATCC 25922)” value was more than 32 mg/L. In addition, the CC50 with HEK293 cells is more than 100 µM. Also, the “MIC Cryptococcus deuterogattii ATCC 32609” value in data set [3] (Table S1) is 69.4 mg/L. Further, the minimum inhibitory concentration (MIC) in data set [3] (setting [6]) is 100 µM; in data set [4] (setting [7]) it was more than 100 µM. The “MIC Cryptococcus deuterogattii CBS 7750” value in data set [4] (Table S1) is more than 69.4 mg/L.

Values taken from PMC7855930, “Nontoxic Cobalt(III) Schiff Base Complexes with Broad‐Spectrum Antifungal Activity” (Chemistry (Weinheim an Der Bergstrasse, Germany), 2020).
